The values that follow come from publication PMC6412695, “Hydroxamic Acid-Based Histone Deacetylase (HDAC) Inhibitors Bearing a Pyrazole Scaffold and a Cinnamoyl Linker” (International Journal of Molecular Sciences, 2019).

“Also recorded” adds a separate entry of the source. Bounds are passed on as bounds.

In assay [1] the test system is HDAC (HeLa nuclear extract). Put plainly: HDAC Inhibitor Drug Screening Kit (fluorometric, Biovision K340-100). Format: biochemical. Conditions: for Inhibition at 500 μM (%) / Inhibition at 10 μM (%): mean of 3 independent measurements, SD <10%; for IC50: HDAC inhibitory activity. On the procedure: The N^1-phenylpyrazole derivatives 1a (the isomer with the connection unit at C5) and 1b (the isomer with the connection unit at C3) were evaluated for their ability to inhibit the HDAC activity to have a preliminary insight about the SAR of this set of compounds. […] Therefore, the development of the other two derivatives of this class, i.e., the p-CN-phenyl derivative 2 and the p-Br-phenyl derivative 3, was focused on the single isomer C5-substituted. As for 1a, the detected inhibitory activity of 2 and 3 was in the low micromolar range (6.3 µM and 1.6 µM, respectively; Table 1).

In assay [2] the test system is neuroblastoma SH-SY5Y tumor cell line. Kind of assay: MTT antiproliferative assay. Format: cell-based, Human. The note with it: SH-SY5Y cells; for inhibition at 25 µM / IC50: Homo sapiens; for inhibition at 25 µM: after 72 h, read-out: inhibition of cell proliferation; for inhibition at 25 µM / antiproliferative effect (in words): MTT; for IC50: MTT test; for antiproliferative effect (in words): 1–50 µM, 24, 48 and 72 h. On the procedure:
Human neuroblastoma cell line SH-SY5Y was originally obtained from ATCC (Rockville, MD, USA). Cells were cultured as previously reported. Briefly, we employed RPMI 1640 medium with 10% heat-inactivated fetal bovine serum (FBS), 2 mM L-glutamine, 1 mM sodium pyruvate, 100 IU/mL penicillin and 100 μg/mL streptomycin at 37 °C in a humidified atmosphere with 5% CO2. All the reagents for cell culture were from Carlo Erba (Milan, Italy). For biological investigations, compounds 1a, 2 and 3 were solubilized in dimethyl sulfoxide (DMSO) to obtain stock solutions at a final concentration of 50 mM that were stored at −20 °C. Just prior use, aliquots were diluted in medium to the final concentrations ranging from 1 to 50 μM.
The abovementioned compounds were evaluated by the MTT assay to assess their anti-proliferative activity, as reported by Ferlazzo et al. Cells were seeded at a density of 5 × 10^3 cell/well in 96-well plates and incubated overnight at 37 °C. In treated cells, the medium was then replaced with a fresh one in which the compounds were diluted from 1 to 50 µM. Untreated cells together with ones exposed to DMSO 0.1% served as control and solvent control, respectively. After incubation for 24, 48, and 72 h, plates were firstly centrifuged, then the medium was removed, and a solution of 3-(4,5-dimethylthiazole-2-yl)-2,5-diphenyltetrazolium bromide (MTT; Sigma-Aldrich, Milan, Italy) at a concentration of 0.5 mg/mL in fresh medium (w/o phenol red) was added. Plates were incubated for further 4h. Afterward, MTT solution was removed, and the obtained formazan crystals were solubilized in 100 µL of a lysis buffer consisting of HCl/isopropanol 0.1 N and regularly shaken. Optical density was measured employing a microplate reader (iMark™, Bio-Rad Laboratories, Milan, Italy) at 595 nm. All experiments were carried out in eight replicates for three times. Results are expressed as the percentage of viable cells compared to untreated cells.
(In general: Tetrazolium assays rely on reduction of a dye to a coloured formazan, in cell work by metabolically active cells.)

Take `Cc1cc(C(=O)Nc2ccc(/C=C/C(=O)NO)cc2)n(-c2ccccc2)n1` [Compound 1a, (E)-N-(4-(3-(hydroxyamino)-3-oxoprop-1-enyl)phenyl)-3-methyl-1-phenyl-1H-pyrazole-5-carboxamide]: in assay [1], the Inhibition (commonly the change of the read-out against control, counted positive when it falls) at 500 μM (%) is reported as 86% and inhibition was half-maximal at 7.1 ± 0.5 µM (IC50). Also, in assay [2], the inhibition at 25 µM was > 75% and the IC50 (as a rule, the concentration needed to halve the response being measured) was found to be 5.34 µM.
As to `Cc1cc(C(=O)Nc2ccc(/C=C/C(=O)NO)cc2)nn1-c1ccccc1` [Compound 1b, (E)-N-(4-(3-(hydroxyamino)-3-oxoprop-1-enyl)phenyl)-5-methyl-1-phenyl-1H-pyrazole-3-carboxamide], in assay [1], the “Inhibition at 10 μM (%)” value amounted to 6%, the “Inhibition at 500 μM (%)” value stood at 30% and the 50% inhibitory concentration (IC50) is > 500 µM.
Regarding `Cc1cc(C(=O)Nc2ccc(/C=C/C(=O)NO)cc2)n(-c2ccc(C#N)cc2)n1` [Compound 2, (E)-1-(4-cyanophenyl)-N-(4-(3-(hydroxyamino)-3-oxoprop-1-enyl)phenyl)-3-methyl-1H-pyrazole-5-carboxamide], in assay [1], the “Inhibition at 10 μM (%)” value is listed as 51%, the “Inhibition at 500 μM (%)” value is listed as 88% and half-maximal inhibition (IC50) was put at 6.3 ± 0.3 µM. Moreover, the “antiproliferative effect (in words)” value in assay [2] is “inactive”. The “antiproliferative effect (in words)” value in assay [2] (listed as 2a) is “None of the tested concentrations; also recorded: No antiproliferative effect”.
With `Cc1cc(C(=O)Nc2ccc(/C=C/C(=O)NO)cc2)n(-c2ccc(Br)cc2)n1` [Compound 3, (E)-1-(4-bromophenyl)-N-(4-(3-(hydroxyamino)-3-oxoprop-1-enyl)phenyl)-3-methyl-1H-pyrazole-5-carboxamide], in assay [1], the “Inhibition at 10 μM (%)” value came to 74%, the “Inhibition at 500 μM (%)” value is 88% and the 50% inhibitory concentration (IC50) amounted to 1.6 ± 0.2 µM. Besides, in assay [2], the inhibition at 25 µM was > 75% and the midpoint of inhibition, the IC50, lay at 5.61 µM.
On to `O=C(/C=C/c1ccc(NC(=O)c2cc(-c3ccccc3)[nH]n2)cc1)NO` [Compound 4, (E)-N-(4-(3-(hydroxyamino)-3-oxoprop-1-enyl)phenyl)-5-phenyl-1H-pyrazole-3-carboxamide], for which, in assay [1], the “Inhibition at 10 μM (%)” value is on record as 13%, the “Inhibition at 500 μM (%)” value came out at 71% and it took 155 ± 2.8 µM to reach half-maximal inhibition (IC50).
Regarding `O=C(/C=C/c1ccc(NC(=O)c2cc(-c3ccc(Br)cc3)[nH]n2)cc1)NO` [Compound 5, (E)-5-(4-bromophenyl)-N-(4-(3-(hydroxyamino)-3-oxoprop-1-enyl)phenyl)-1H-pyrazole-3-carboxamide], in assay [1], the “Inhibition at 500 μM (%)” value came out at 15% and the IC50 was > 500 µM.
As for `O=C(/C=C/c1ccc(NC(=O)c2n[nH]c3c2Cc2ccccc2-3)cc1)NO` [Compound 6, (E)-N-(4-(3-(hydroxyamino)-3-oxoprop-1-enyl)phenyl)-1,4-dihydroindeno[1,2-c]pyrazole-3-carboxamide], in assay [1], the “Inhibition at 10 μM (%)” value was determined as 29%, the “Inhibition at 500 μM (%)” value turned out to be 87% and half-maximal inhibition (IC50) required 46.5 ± 1.5 µM.
`CC(/C=C/C(=O)NO)=C\[C@@H](C)C(=O)c1ccc(N(C)C)cc1` [TSA, Trichostatin A, reference compound]: the IC50 in assay [1] stood at 3.4 ± 0.2 µM.
